Legend:
[1] = target: 72 kDa type IV collagenase (Homo sapiens, UniProt P08253); experiment: Inhibition of MMP2 (unknown origin) using Mca-Lys-Pro-Leu-GlyLeu-Dpa-Ala-Arg-NH2 as substrate by fluorometric assay
[2] = target: Matrix metalloproteinase-9 (Homo sapiens, UniProt P14780); experiment: Inhibition of MMP9 (unknown origin) using Mca-Lys-Pro-Leu-GlyLeu-Dpa-Ala-Arg-NH2 as substrate by fluorometric assay
Chain of Matrix metalloproteinase-9 (P14780 whole entry): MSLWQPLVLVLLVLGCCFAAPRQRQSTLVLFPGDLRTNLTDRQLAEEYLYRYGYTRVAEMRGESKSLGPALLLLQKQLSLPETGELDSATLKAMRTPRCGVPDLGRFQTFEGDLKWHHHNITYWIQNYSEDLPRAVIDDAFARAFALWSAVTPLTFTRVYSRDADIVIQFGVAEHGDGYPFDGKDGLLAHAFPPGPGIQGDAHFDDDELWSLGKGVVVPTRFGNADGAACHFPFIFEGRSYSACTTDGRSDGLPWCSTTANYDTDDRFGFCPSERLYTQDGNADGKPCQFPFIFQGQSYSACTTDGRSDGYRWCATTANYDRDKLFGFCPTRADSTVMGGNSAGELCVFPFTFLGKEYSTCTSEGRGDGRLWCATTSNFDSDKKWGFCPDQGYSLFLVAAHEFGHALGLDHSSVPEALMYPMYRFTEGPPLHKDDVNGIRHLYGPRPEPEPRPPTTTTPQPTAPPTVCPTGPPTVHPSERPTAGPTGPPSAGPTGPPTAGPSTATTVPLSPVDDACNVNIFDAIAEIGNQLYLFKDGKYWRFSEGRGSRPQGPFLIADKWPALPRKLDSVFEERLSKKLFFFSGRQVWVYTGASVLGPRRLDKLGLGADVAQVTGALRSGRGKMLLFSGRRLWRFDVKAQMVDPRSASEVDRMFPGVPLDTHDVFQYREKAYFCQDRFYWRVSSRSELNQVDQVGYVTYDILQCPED

Chain of 72 kDa type IV collagenase (P08253 whole entry): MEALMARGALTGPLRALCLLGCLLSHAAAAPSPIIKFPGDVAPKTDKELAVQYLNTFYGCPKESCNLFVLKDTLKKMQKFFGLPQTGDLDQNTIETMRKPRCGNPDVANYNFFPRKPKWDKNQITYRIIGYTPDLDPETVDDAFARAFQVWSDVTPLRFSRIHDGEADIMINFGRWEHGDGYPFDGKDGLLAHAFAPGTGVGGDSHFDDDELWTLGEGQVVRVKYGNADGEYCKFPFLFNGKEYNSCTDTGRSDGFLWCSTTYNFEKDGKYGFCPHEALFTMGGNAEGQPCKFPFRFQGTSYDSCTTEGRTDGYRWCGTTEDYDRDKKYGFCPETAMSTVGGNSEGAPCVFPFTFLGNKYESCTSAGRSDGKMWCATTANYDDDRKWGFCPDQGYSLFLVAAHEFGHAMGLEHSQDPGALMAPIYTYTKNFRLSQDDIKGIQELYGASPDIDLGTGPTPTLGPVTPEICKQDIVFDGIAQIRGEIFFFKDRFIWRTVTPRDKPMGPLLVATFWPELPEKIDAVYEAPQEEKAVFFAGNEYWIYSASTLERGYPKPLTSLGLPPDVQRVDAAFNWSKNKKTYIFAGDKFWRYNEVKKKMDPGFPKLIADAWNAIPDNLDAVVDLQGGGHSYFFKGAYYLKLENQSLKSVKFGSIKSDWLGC

IC50 [1] [nM] | IC50 [2] [nM] | SMILES
91 | 49 | COc1ccc(S(=O)(=O)N2C[C@H](NC(=O)CCCNC(=O)OC(C)(C)C)C[C@@H]2C(=O)NO)cc1
– | 22 | COc1ccc(S(=O)(=O)N2CCC[C@@H]2C(=O)NO)cc1
1260 | 5.7 | COc1ccc(S(=O)(=O)N2C[C@H](NC(=O)[C@@H](N)CCCCN)C[C@@H]2C(=O)NO)cc1
432 | 27 | COc1ccc(S(=O)(=O)N2C[C@H](NC(=O)[C@H](CCCCN)NC(=O)OC(C)(C)C)C[C@@H]2C(=O)NO)cc1
302 | 53 | COc1ccc(S(=O)(=O)N2C[C@H](NC(=O)CCCN)C[C@@H]2C(=O)NO)cc1
15 | 154 | COc1ccc(S(=O)(=O)N2C[C@H](NC(=O)[C@@H](N)CCCN)C[C@@H]2C(=O)NO)cc1
1320 | 3420 | COc1ccc(S(=O)(=O)N2C[C@H](NC(=O)[C@H](CCCN)NC(=O)OC(C)(C)C)C[C@@H]2C(=O)NO)cc1
26 | 13 | COc1ccc(S(=O)(=O)N2C[C@H](NC(=O)C(C)(C)C)C[C@@H]2C(=O)NO)cc1
62 | 98 | CCCC[C@H](N)C(=O)N[C@@H]1C[C@H](C(=O)NO)N(S(=O)(=O)c2ccc(OC)cc2)C1
87 | 131 | CCCC[C@H](NC(=O)OC(C)(C)C)C(=O)N[C@@H]1C[C@H](C(=O)NO)N(S(=O)(=O)c2ccc(OC)cc2)C1
